Experimental data taken from patent US5952511A, “Indolin-2-one derivatives” (Chugai Seiyaku Kabushiki Kaisha, priority 1993, dated 1999).
pIC50: −log10 of the molar value.

Tests used:
[1] = molecular target: T1, CCK-B receptors (rat cerebral cortex) (Rattus norvegicus, UniProt P30553); test: CCK-B Receptor Binding Test in Rat Cerebral Cortex (Test Example 3); set-up: species or system rat (Sprague-Dawley, male); conditions: inhibition of specific 125I-CCK-8 sulfated binding (15 pM), 25° C., 120 min
T1 construct: Cerebral cortex was minced in the same buffer, and homogenized with Polytron; from tissue; host or cells: cerebral cortex membrane fraction of Sprague-Dawley male rats
T1 sequence (P30553 1-452): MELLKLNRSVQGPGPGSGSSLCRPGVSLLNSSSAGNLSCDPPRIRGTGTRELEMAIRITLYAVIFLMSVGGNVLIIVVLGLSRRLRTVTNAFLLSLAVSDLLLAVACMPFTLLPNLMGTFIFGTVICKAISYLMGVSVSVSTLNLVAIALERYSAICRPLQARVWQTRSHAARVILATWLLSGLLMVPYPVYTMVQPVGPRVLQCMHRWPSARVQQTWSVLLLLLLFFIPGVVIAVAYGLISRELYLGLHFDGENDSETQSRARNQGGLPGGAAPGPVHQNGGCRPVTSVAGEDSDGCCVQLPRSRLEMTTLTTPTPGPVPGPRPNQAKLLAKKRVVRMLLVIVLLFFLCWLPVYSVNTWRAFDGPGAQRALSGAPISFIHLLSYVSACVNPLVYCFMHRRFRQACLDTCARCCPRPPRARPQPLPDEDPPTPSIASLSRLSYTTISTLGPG
Protocol: CCK-B Receptor Binding Test in Rat Cerebral Cortex
A rat cortical membrane fraction was prepared in accordance with the method of Chang, et al., Proc. Natl. Acad. Sci., U.S.A., 83, 4923 (1986). Sprague-Dawley male rats were sucrified and the brains were removed and immersed in a 50 mM Tris-HCl buffer (pH 7.4) under ice-cooling, and the cortex was dissected. Cerebral cortex was minced in the same buffer, and homogenized with Polytron. The homogenate was centrifuged at 2,500 g, and the supernatant was further centrifuged at 50,000 g. The pellet was resuspended in a reaction buffer solution (10 mM HEPES, 5 mM MgCl2, 1 mM EGTA, 130 mM NaCl; pH 6.5).
To 150 μl of the resulting rat cerebral cortex suspension were added 20 μl of ^125 I-CCK-8 sulfated (final concentration: 15 pM) and 10 μl of a test compound or a solvent (for total binding) or 1 μM CCK-8 sulfated (for nonspecific binding), and the reaction buffer solution was added there to make 1 ml. The reaction mixture was incubated at 25° C. for 120 minutes, followed by filtration through a GF/B filter (produced by Whatman). The radio-activity of the membrane fraction adsorbed onto the filter was measured with a gamma-counter.
The specific binding to CCK-B receptors was obtained from a difference between the total binding and the nonspecific binding. The IC50 of the test compound in inhibition of specific binding was calculated.

[2] = molecular target: T2, gastrin receptors (guinea pig gastric glands) (Cavia porcellus, UniProt H0VZC5); test: Gastrin Receptor Binding Test in Guinea Pig Gastric Glands (Test Example 1); set-up: species or system guinea pig (Hartley, male); conditions: inhibition of specific 125I-gastrin I human binding (22.5 pM), 25° C., 45 min
T2 construct: The gastric glands were isolated from the tissue with a pipette; from tissue; host or cells: isolated gastric glands from gastric mucosa of Hartley male guinea pigs
T2 sequence (H0VZC5 1-426): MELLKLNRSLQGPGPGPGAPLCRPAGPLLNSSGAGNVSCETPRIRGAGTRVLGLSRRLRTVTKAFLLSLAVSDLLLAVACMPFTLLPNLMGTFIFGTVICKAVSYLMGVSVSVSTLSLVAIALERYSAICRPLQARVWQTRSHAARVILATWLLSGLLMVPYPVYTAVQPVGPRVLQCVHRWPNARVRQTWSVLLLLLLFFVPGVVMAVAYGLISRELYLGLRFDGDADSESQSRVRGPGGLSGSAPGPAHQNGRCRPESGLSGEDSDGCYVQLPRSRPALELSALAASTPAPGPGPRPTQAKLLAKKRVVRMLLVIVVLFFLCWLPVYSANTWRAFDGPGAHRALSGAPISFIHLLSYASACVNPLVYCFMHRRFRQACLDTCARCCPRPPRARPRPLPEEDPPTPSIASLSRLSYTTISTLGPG
Protocol: Gastrin Receptor Binding Test in Guinea Pig Gastric Glands
Preparation of Gastric Glands:
Guinea pig gastric glands were prepared according to the method of Chang, et al., Biochem. Biophys. Res. Commun., 134, 895 (1986). The gastric mucosa of a Hartley male guinea pig was peeled off. After washing, the mucosa was minced with scissors in buffer A (Eagle's MEM containing 2 mM L-glutamine and 25 mM HEPES; pH 7.4). After washing, the minced tissue was incubated in buffer A containing 0.025% collagenase, 0.01% soy bean trypsin inhibitor, and 0.1% BSA at 37° C. for 60 minutes under 95% O2 and 5% CO2. The gastric glands were isolated from the tissue with a pipette, washed twice with buffer A, and filtered through a mesh. Then, the gastric glands were obtained by centrifugation.
Guinea pig gastric glands were resuspended in buffer B (Hank's solution containing 10 mM HEPES and 0.2% BSA; pH 7.4) (10 ml of buffer B per guinea pig).
To 200 μl of the suspension containing the resuspended isolated gastric glands were added 20 μl of ^125 I-gastrin I human (final concentration: 22.5 pM). Then, 10 μl of a test compound or a solvent (for total binding) or 10 μM Pentagastrin (for nonspecific binding), and buffer B was added there to make a total volume of 1 ml. The reaction mixture was incubated at 25° C. for 45 minutes and then centrifuged at 12000 g. The supernatant was removed by suction, and the radioactivity of the isolated gastric glands was measured with a gamma-counter.
The specific binding of gastrin to gastrin receptors was obtained from a difference between the total binding and the nonspecific binding. The IC50 of the test compound in inhibition of specific binding was calculated.

[3] = test system: gastric acid secretion; test: Inhibitory Activity on Gastric Acid Secretion in Pylorus Ligated Rats (Test Example 2); assay type: in vivo, rat (Sprague-Dawley, male); conditions: Rattus norvegicus, intraduodenal, 10 mg/kg, i.d., 4 h
Protocol: Inhibitory Activity on Gastric Acid Secretion in Pyrolus Ligated Rats
Sprague-Dawley male rats weighing about 200 g were deprived of food for 24 hours while allowed water ad libitum. The abdomen was opened under anesthesia with ethyl ether, the pyrolus ligated, and the abdomen closed. The rats were deprived of food and water for 4 hours until they were surcrified with ethyl ether. The stomach was removed, and gastric juice was collected and measured. The gastric juice was centrifuged at 3000 rpm, and the supernatant was titrated up to pH 7.0 with 0.1N NaOH solution to obtain the acidity of the gastric juice. The amount of the gastric acid output was calculated by multiplying the gastric juice volume by the acidity, and the percent inhibition of acid secretion was obtained according to the following equation. A test compound, suspended in a 3% gum arabic solution, was administered intraduodenally at a dose of 2 ml/kg immediately after the pyrolus ligation.
Inhibition (%)=[(Average amount of gastric acid output in control group--Average amount of gastric acid output in test group)/Average amount of gastric acid secreted […]]×100

Structure (SMILES) | pIC50 [1] | pIC50 [2] | inhibition in vivo at 10 mg/kg [3] [%]
CCOC(CN1C(=O)C(NC(=O)Nc2ccc(C)cc2)(NC(=O)Nc2ccc(C)cc2)c2ccccc21)OC (racemic) [Example 7, (RS)-1-(2-Ethoxy-2-methoxyethyl)-3,3-bis(N'-(4-methylphenyl)ureido)indolin-2-one] | 10.15 |  | 
Cc1ccc(NC(=O)CC2(NC(=O)Nc3ccc(C)cc3)C(=O)N(Cc3ccccc3)c3ccccc32)cc1 (racemic) [Example 62, (RS)-1-Benzyl-3-((4-methylphenyl)aminocarbonylmethyl)-3-(N'-(4-methylphenyl)ureido)indolin-2-one] | 8.92 |  | 
Cc1ccc(NC(=O)CC2(NC(=O)Nc3ccc(C)cc3)C(=O)N(Cc3ccccn3)c3ccccc32)cc1 (racemic) [Example 65, (RS)-3-((4-Methylhenyl)aminocarbonylmethyl)-3-(N'-(4-methylphenyl)ureido)-1-(2-pyridylmethyl)indolin-2-one] | 9.12 |  | 
Cc1ccc(NC(=O)CC2(NC(=O)Nc3ccc(C)cc3)C(=O)N(CCc3ccccc3)c3ccccc32)cc1 (racemic) [Example 66, (RS)-3-((4-Methylphenyl)aminocarbonylmethyl)-3-(N'-(4-methylphenyl)ureido)-1-(2-phenylethyl)indolin-2-one] | 9.12 |  | 
CCOC(CN1C(=O)C(CC(=O)Nc2ccc(C)cc2)(NC(=O)Nc2ccc(C)cc2)c2ccccc21)OCC (racemic) [Example 71, (RS)-1-(2,2-Diethoxyethyl)-3-((4-methylphenyl)aminocarbonylmethyl)-3-(N'-(4-methylphenyl)ureido)indolin-2-one] | 8.92 | 8.96 | 48
CCOC(CN1C(=O)C(CC(=O)Nc2ccc(C)cc2)(NC(=O)Nc2ccc(C#N)cc2)c2ccccc21)OCC (racemic) [Example 92, (RS)-3-(N'-(4-Cyanophenyl)ureido)-1-(2,2-diethoxyethyl)-3-((4-methylphenyl)aminocarbonylmethyl)indolin-2-one] | 9.05 | 8.37 | 57
CCOC(CN1C(=O)C(CC(=O)Nc2cccc(C)c2)(NC(=O)Nc2ccc(C)cc2)c2ccccc21)OCC (racemic) [Example 111, (RS)-1-(2,2-Diethoxyethyl)-3-((3-methylphenyl)aminocarbonylmethyl)-3-(N'-(4-methylphenyl)ureido)indolin-2-one] | 9.46 | 8.29 | 69
CCOC(CN1C(=O)C(CC(=O)Nc2ccc(Cl)cc2)(NC(=O)Nc2ccc(C)cc2)c2ccccc21)OCC (racemic) [Example 114, (RS)-3-((4-Chlorophenyl)aminocarbonylmethyl)-1-(2,2-diethoxyethyl)-3-(N'-(4-methylphenyl)ureido)indolin-2-one] | 9.19 | 8.62 | 56
CCOC(CN1C(=O)C(CC(=O)Nc2ccc(C)c(C)c2)(NC(=O)Nc2ccc(C)cc2)c2ccccc21)OCC (racemic) [Example 122, (RS)-1-(2,2-Diethoxyethyl)-3-((3,4-dimethylphenyl)aminocarbonylmethyl)-3-(N'-(4-methylphenyl)ureido)indolin-2-one] | 9.74 | 8.54 | 62
CCOC(CN1C(=O)C(NC(=O)Nc2ccc(C)cc2)(NC(=O)Nc2ccc(C)cc2)c2ccccc21)OCC [Example 10, 1-(2,2-Diethoxyethyl)-3,3-bis(N'-(4-methylphenyl)ureido)indolin-2-one] |  | 8.60 | 59
CCOC(CN1C(=O)C(NC(=O)Nc2ccc(F)cc2)(NC(=O)Nc2ccc(F)cc2)c2ccccc21)OCC [Example 14, 1-(2,2-Diethoxyethyl)-3,3-bis(N'-(4-fluorophenyl)ureido)indolin-2-one] |  | 8.66 | 49
